Measurements: article doi:10.1101/2025.03.26.645513v1 (biorxiv, 2025)

Assays:
Assay in all cases: acid ninhydrin cysteine assay, A560
SaCysK [1] = biological target: T1, SaCysK (Staphylococcus aureus, UniProt P63871); format: biochemical; conditions: substrate inhibition constant, MOPS, 37 °C, no glycerol
T1 sequence (P63871 1-310): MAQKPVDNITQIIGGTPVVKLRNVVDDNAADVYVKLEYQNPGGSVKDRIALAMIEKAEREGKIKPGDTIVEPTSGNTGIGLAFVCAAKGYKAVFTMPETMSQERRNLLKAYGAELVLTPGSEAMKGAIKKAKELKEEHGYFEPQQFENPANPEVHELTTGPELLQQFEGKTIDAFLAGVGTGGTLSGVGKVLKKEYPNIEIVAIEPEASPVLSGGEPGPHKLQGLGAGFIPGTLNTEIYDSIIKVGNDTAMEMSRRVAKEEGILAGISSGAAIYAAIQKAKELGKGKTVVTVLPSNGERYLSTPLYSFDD

NgCysK = NgCysK (Neisseria gonorrhoeae, UniProt Q5F9Q2); conditions: read-out: Khalf; 10 mM OAS; MOPS; 37 °C; no glycerol; cooperative
SaCysK [2] = biological target: T1, SaCysK; conditions: 10 mM OAS; MOPS; 37 °C; no glycerol

Chain of NgCysK (Q5F9Q2 1-310): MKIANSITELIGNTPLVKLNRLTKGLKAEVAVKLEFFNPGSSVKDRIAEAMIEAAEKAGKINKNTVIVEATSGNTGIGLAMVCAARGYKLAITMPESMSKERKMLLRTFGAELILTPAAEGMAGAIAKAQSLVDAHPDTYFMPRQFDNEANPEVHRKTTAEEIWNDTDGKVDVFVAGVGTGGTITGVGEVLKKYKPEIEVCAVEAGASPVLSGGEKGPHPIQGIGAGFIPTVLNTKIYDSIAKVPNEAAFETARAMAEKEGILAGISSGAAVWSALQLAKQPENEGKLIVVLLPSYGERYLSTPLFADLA

| Compound | Ki (SaCysK [1]; 15 mM Na2S) [mM] | Ki (SaCysK [1]; 10 mM OAS) [mM] | Km (NgCysK) [mM] | Km (SaCysK [2]) [mM] |
| --- | --- | --- | --- | --- |
| CC(=O)OC[C@H](N)C(=O)O [O-acetylserine] | 6.265 ± 2.489 |  |  |  |
| S [sodium sulfide] |  | 15.970 ± 12.793 | 23.6 ± 10.8 | 2.31 ± 3.57 |
